Measured values as given in patent US20230147364A1, “PROPHYLACTIC OR THERAPEUTIC AGENT FOR RNA VIRUS-RELATED DISEASES” (priority 2020, published 2023).
Where a name gives a salt, the structure may show the parent alone.

What was measured:
Sendai virus (SeV) [1] = test: microbe, parasite or virus in culture; assay type: cell-based; conditions: for IC50: Respirovirus muris, read-out: IC50, infection rate of SeV
SARS-CoV-2 = test: microbe, parasite or virus in culture; assay type: cell-based; conditions: for IC50: Severe acute respiratory syndrome coronavirus 2, Vero C1008, read-out: IC50, infection rate of SARS-CoV-2
Ebola trVLP [2] = system: Ebola trVLP
VSV-G = assay type: cell-based, vesicular stomatitis virus
Sendai virus (SeV) [3] = assay type: cell-based
Ebola trVLP [4] = test: microbe, parasite or virus in culture; conditions: Zaire ebolavirus, Huh-7, read-out: IC50, Ebola trVLP infection
[5] = system: VSVΔG-SARS2-S (pseudo-type VSV with SARS-CoV-2 spike protein); test: microbe, parasite or virus in culture; assay type: cell-based; conditions: Vesicular stomatitis virus, Vero C1008, 20 h, read-out: IC50, VSVΔG-SARS2-S infection
[6] = system: pseudo-typed VSV having a SARS-CoV spike protein (SARS-CoV-S); test: microbe, parasite or virus in culture; assay type: cell-based; conditions: Vesicular stomatitis virus, Vero C1008, 20 h, read-out: IC50, infection with pseudo-typed VSV having SARS-CoV spike protein
Throughout, for Score (number of EGFP-positive cells, value subjected to correction between batches): test concentration or dose not given here.

For CC1=NS(=O)(=O)c2cc(Cl)ccc2N1 [Diazoxide], the “Score (number of EGFP-positive cells, value subjected to correction between batches)” value (from here on “Score”) (Sendai virus (SeV) [1]) was 173.91.
For CN(C)CCC=C1c2ccccc2CCc2ccccc21 [Amitriptyline hydrochloride], the “Score” value (Sendai virus (SeV) [1]) was 192.61.
With CS(=O)(=O)c1ccc(C2=C(c3ccccc3)C(=O)OC2)cc1 [Rofecoxib] the “Score” value (Sendai virus (SeV) [1]) was 202.89.
For Cc1ccc(-c2cc(C(F)(F)F)nn2-c2ccc(S(N)(=O)=O)cc2)cc1 [Celecoxib], the “Score” value (Sendai virus (SeV) [1]) was 208.69.
CC/C(=C(\c1ccccc1)c1ccc(OCCN(C)C)cc1)c1ccccc1 [Tamoxifen, tamoxifen] was tested, and the “effect on virus: SARS-CoV-2” value (SARS-CoV-2) was “+”, the “antiviral activity against Ebola trVLP infection” value (Ebola trVLP [2]) was “inhibit the Ebola trVLP infection” and the “effect on virus: Ebola virus” value (Ebola trVLP [2]) was “+”.
In the case of CNCCCC12CCC(c3ccccc31)c1ccccc12 [Maprotiline hydrochloride], the “Score” value (Sendai virus (SeV) [1]) is reported as 191.30.
O=C1CCc2ccc(OCCCCN3CCN(c4cccc(Cl)c4Cl)CC3)cc2N1 [Aripiprazole] was tested, and the “Score” value (Sendai virus (SeV) [1]) was 86.95.
CC1=C(CC(=O)O)c2cc(F)ccc2/C1=C\c1ccc([S+](C)[O-])cc1 (stereo not drawn) [Sulindac] was tested, and the “Score” value (Sendai virus (SeV) [1]) was 127.53.
O=C(c1ccc(OCCN2CCCCC2)cc1)c1c(-c2ccc(O)cc2)sc2cc(O)ccc12 [Raloxifene hydrochloride] was tested, and the “Score” value (Sendai virus (SeV) [1]) was 57.97.
OCCOCCN1CCN(C2=Nc3ccccc3Sc3ccccc32)CC1 [Quetiapine fumarate] was tested, and the “Score” value (Sendai virus (SeV) [1]) was 133.33.
For O=C(c1ccc(OCCN2CCCCC2)cc1)c1c(-c2ccc(O)cc2)sc2cc(O)ccc12 [Raloxifene, raloxifene], the “effect on virus: SARS-CoV-2” value (SARS-CoV-2) was “+”, the IC50 (SARS-CoV-2) was 7.1 µM and the “infection-inhibiting effect on VSV-G” value (VSV-G) was “no infection-inhibiting effect was observed”. The “amount of the EGFP mRNA” value (Sendai virus (SeV) [3]) was “significantly and markedly reduced”, the “effect on virus: Sendai virus” value (Sendai virus (SeV) [1]) was “+” and the IC50 (Sendai virus (SeV) [1]) was 4.3 µM. The IC50 (Ebola trVLP [4]) was 0.88 µM, the “effect on virus: Ebola virus” value (Ebola trVLP [2]) was “+” and the “infection-inhibiting activity versus cytotoxicity (cell viability)” value (Ebola trVLP [2]) was “significant dissociation between the infection-inhibiting activity and the cytotoxicity”. It also gave an IC50 [5] of 3.9 µM and an IC50 [6] of 4.1 µM.
In the case of CC(C)(C)[C@]1(O)CCN2Cc3cccc4c3[C@H](c3ccccc3CC4)[C@@H]2C1.Cl [(+)-Butaclamol hydrochloride], the “Score” value (Sendai virus (SeV) [1]) is reported as 226.08.
CN(C)CCCN1c2ccccc2Sc2ccc(Cl)cc21 [Chlorpromazine hydrochloride] was tested, and the “Score” value (Sendai virus (SeV) [1]) was 75.36.
CC(COc1ccccc1)N(CCCl)Cc1ccccc1 (stereo not drawn) [Phenoxybenzamine hydrochloride] was tested, and the “Score” value (Sendai virus (SeV) [1]) was 162.31.
With O=c1[nH]c2ccccc2n1CCCN1CCC(n2c(=O)[nH]c3cc(Cl)ccc32)CC1 [Domperidone] the “Score” value (Sendai virus (SeV) [1]) was 139.13.
In the case of O=C(O)COCCN1CCN(C(c2ccccc2)c2ccc(Cl)cc2)CC1 (stereo not drawn) [Cetirizine dihydrochloride], the “Score” value (Sendai virus (SeV) [1]) is reported as 202.89.
With CC(CCc1ccc(O)cc1)NCCc1ccc(O)c(O)c1 (stereo not drawn) [Dobutamine hydrochloride] the “Score” value (Sendai virus (SeV) [1]) was 69.56.
In the case of O=C(Nc1cccc2c(=O)cc(-c3nnn[nH]3)oc12)c1ccc(OCCCCc2ccccc2)cc1 [Pranlukast, pranlukast], the “antiviral activity against SARS-CoV-2 infection” value (SARS-CoV-2) is reported as “tended to reduce the infection rate of SARS-CoV-2, which was not significant”, the “effect on virus: SARS-CoV-2” value (SARS-CoV-2) is reported as “N.S” and the “amount of the EGFP mRNA” value (Sendai virus (SeV) [3]) is reported as “significantly and markedly reduced”. The “Score” value (Sendai virus (SeV) [1]) was 162.31, the “effect on virus: Sendai virus” value (Sendai virus (SeV) [1]) was “+” and the IC50 (Sendai virus (SeV) [1]) was 5 µM. For the same compound, the “antiviral activity against Ebola trVLP infection” value (Ebola trVLP [2]) was “did not show significant antiviral activity” and the “effect on virus: Ebola virus” value (Ebola trVLP [2]) was “−”.
For CCN(CC)CCOc1ccc(/C(=C(/Cl)c2ccccc2)c2ccccc2)cc1 [Clomifene, clomifene], the “effect on virus: SARS-CoV-2” value (SARS-CoV-2) was “+”, the “infection-inhibiting effect on VSV-G” value (VSV-G) was “no infection-inhibiting effect was observed” and the “antiviral activity against Ebola trVLP infection” value (Ebola trVLP [2]) was “inhibit the Ebola trVLP infection”. The “effect on virus: Ebola virus” value (Ebola trVLP [2]) was “+”.
In the case of CCCCC[C@H](O)/C=C/[C@H]1[C@H](O)CC(=O)[C@@H]1C/C=C\CCCC(=O)O [Prostaglandin E2], the “Score” value (Sendai virus (SeV) [1]) is reported as 208.69.
With O=C(NCCO[N+](=O)[O-])c1cccnc1 [Nicorandil] the “Score” value (Sendai virus (SeV) [1]) was 185.50.
With Nc1cc(N2CCCCC2)nc(N)[n+]1[O-] [Minoxidil] the “Score” value (Sendai virus (SeV) [1]) was 226.08.
For CC(CN1c2ccccc2Sc2ccccc21)N(C)C (stereo not drawn) [Promethazine hydrochloride], the “Score” value (Sendai virus (SeV) [1]) was 231.88.
With CO[C@H]1/C=C/O[C@@]2(C)Oc3c(C)c(O)c4c(O)c(c(/C=N/N5CCN(C)CC5)c(O)c4c3C2=O)NC(=O)/C(C)=C\C=C\[C@H](C)[C@H](O)[C@@H](C)[C@@H](O)[C@@H](C)[C@H](OC(C)=O)[C@@H]1C [Rifampin, rifampin] the “antiviral activity against SARS-CoV-2 infection” value (SARS-CoV-2) was “tended to reduce the infection rate of SARS-CoV-2, which was not significant”, the “effect on virus: SARS-CoV-2” value (SARS-CoV-2) was “N.S” and the “amount of the EGFP mRNA” value (Sendai virus (SeV) [3]) was “significantly and markedly reduced”. The “Score” value (Sendai virus (SeV) [1]) was 75.36, the “effect on virus: Sendai virus” value (Sendai virus (SeV) [1]) was “+” and the IC50 (Sendai virus (SeV) [1]) was 3.9 µM. The “antiviral activity against Ebola trVLP infection” value (Ebola trVLP [2]) was “did not show significant antiviral activity” and the “effect on virus: Ebola virus” value (Ebola trVLP [2]) was “−”.
In the case of CC(c1cc2ccccc2s1)N(O)C(N)=O (stereo not drawn) [Zileuton, zileuton], the “antiviral activity against SARS-CoV-2 infection” value (SARS-CoV-2) is reported as “did not exhibit significant antiviral activity”, the “effect on virus: SARS-CoV-2” value (SARS-CoV-2) is reported as “−” and the “amount of the EGFP mRNA” value (Sendai virus (SeV) [3]) is reported as “significantly and markedly reduced”. For the same compound, the “Score” value (Sendai virus (SeV) [1]) was 214.49, the “effect on virus: Sendai virus” value (Sendai virus (SeV) [1]) was “+” and the IC50 (Sendai virus (SeV) [1]) was 4.5 µM. For the same compound, the “antiviral activity against Ebola trVLP infection” value (Ebola trVLP [2]) was “did not show significant antiviral activity” and the “effect on virus: Ebola virus” value (Ebola trVLP [2]) was “−”.
CCC(CC)COC(=O)[C@H](C)N[P@](=O)(OC[C@H]1O[C@@](C#N)(c2ccc3c(N)ncnn23)[C@H](O)[C@@H]1O)Oc1ccccc1 [remdesivir] was tested, and the IC50 (SARS-CoV-2) was 0.89 µM, the “amount of the EGFP mRNA” value (Sendai virus (SeV) [3]) was “substantially not detected” and the IC50 (Sendai virus (SeV) [1]) was 0.077 µM. The IC50 (Ebola trVLP [4]) was 0.12 µM.
For CSc1ccc2c(c1)N(CCC1CCCCN1C)c1ccccc1S2 (stereo not drawn) [Thioridazine hydrochloride], the “Score” value (Sendai virus (SeV) [1]) was 217.78.
For CCc1ccc(CCOc2ccc(CC3SC(=O)NC3=O)cc2)nc1 (stereo not drawn) [Pioglitazone, pioglitazone], the “antiviral activity against SARS-CoV-2 infection” value (SARS-CoV-2) was “partially suppressed virus infection at a high concentration”, the “effect on virus: SARS-CoV-2” value (SARS-CoV-2) was “+” and the “amount of the EGFP mRNA” value (Sendai virus (SeV) [3]) was “significantly and markedly reduced”. The “Score” value (Sendai virus (SeV) [1]) was 173.91, the “effect on virus: Sendai virus” value (Sendai virus (SeV) [1]) was “+” and the IC50 (Sendai virus (SeV) [1]) was 4.9 µM. For the same compound, the “antiviral activity against Ebola trVLP infection” value (Ebola trVLP [2]) was “did not show significant antiviral activity” and the “effect on virus: Ebola virus” value (Ebola trVLP [2]) was “−”.
In the case of CN(C)CCOc1ccc(/C(=C(/CCCl)c2ccccc2)c2ccccc2)cc1 [Toremifene, toremifene], the “effect on virus: SARS-CoV-2” value (SARS-CoV-2) is reported as “+”, the IC50 (SARS-CoV-2) is reported as 10 µM and the “infection-inhibiting effect on VSV-G” value (VSV-G) is reported as “no infection-inhibiting effect was observed”. For the same compound, the “antiviral activity against Ebola trVLP infection” value (Ebola trVLP [2]) was “inhibit the Ebola trVLP infection”, the “effect on virus: Ebola virus” value (Ebola trVLP [2]) was “+” and the IC50 [5] was 5.3 µM. It also gave an IC50 [6] of 7.3 µM.
For COc1ccccc1N1CCN(CC(O)COc2cccc3ccccc23)CC1 (stereo not drawn) [Naftopidil], the “Score” value (Sendai virus (SeV) [1]) was 214.49.
In the case of COc1ccc(CN(CCN(C)C)c2ccccn2)cc1 [Pyrilamine maleate], the “Score” value (Sendai virus (SeV) [1]) is reported as 185.50.
In the case of COc1ccc(Cl)cc1C(=O)NCCc1ccc(S(=O)(=O)NC(=O)NC2CCCCC2)cc1 [Glibenclamide], the “Score” value (Sendai virus (SeV) [1]) is reported as 202.89.
With CCOC(=O)C1=C(C)NC(C)=C(C(=O)OC)C1c1cccc(Cl)c1Cl (stereo not drawn) [Felodipine] the “Score” value (Sendai virus (SeV) [1]) was 133.33.
With Ifenprodil tartrate the “Score” value (Sendai virus (SeV) [1]) was 214.49.
In the case of COc1cc(C(=O)NS(=O)(=O)c2ccccc2C)ccc1Cc1cn(C)c2ccc(NC(=O)OC3CCCC3)cc12 [Zafirlukast], the “Score” value (Sendai virus (SeV) [1]) is reported as 156.52.
